Data taken from patent US10351547B2, “Somatostatin modulators and uses thereof” (priority 2016, dated 2019).
Read-outs that look alike come from different tables or passages of the source.

Biological target: human SSTR2 (Homo sapiens (Human), UniProt P30874)
Test: Human SSTR2 intracellular cAMP functional assay for agonists (HTRF)
Type: cell-based
Method in brief: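 Cells bearing human SSTR2 exposed to compound for 20 minutes at 37 °C; after lysis, cAMP measured by time-resolved fluorescence (HTRF) and converted via a standard curve. EC50 calculated from cAMP versus compound concentration.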

[1] = CHO-K1 cells stably expressing human SSTR2, NKH477-stimulated cAMP, read-out: EC50 (inhibition of cAMP activities via human SST2R)

Sequence of human SSTR2 (P30874 whole entry): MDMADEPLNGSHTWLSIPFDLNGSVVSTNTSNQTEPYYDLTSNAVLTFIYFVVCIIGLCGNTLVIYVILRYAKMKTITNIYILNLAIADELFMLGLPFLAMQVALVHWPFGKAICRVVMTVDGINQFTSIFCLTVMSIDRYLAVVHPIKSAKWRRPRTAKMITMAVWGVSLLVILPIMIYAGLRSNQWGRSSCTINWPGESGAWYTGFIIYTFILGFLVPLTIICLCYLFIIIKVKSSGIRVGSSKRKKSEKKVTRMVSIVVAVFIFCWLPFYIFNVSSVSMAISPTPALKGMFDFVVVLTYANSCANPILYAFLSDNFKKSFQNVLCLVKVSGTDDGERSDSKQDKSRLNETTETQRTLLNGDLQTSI

Structure (SMILES) | EC50 | EC50 [1]
NC1CCN(c2c(-c3cc(F)cc(F)c3)cnc3ccc(-c4cncc(F)c4OC4COC4)cc23)CC1 [2-74, 1-[3-(3,5-difluorophenyl)-6-[5-fluoro-4-(oxetan-3-yloxy)pyridin-3-yl]quinolin-4-yl]piperidin-4-amine] | 100 to 1000 nM | 
N#Cc1cnc(N2CCC2)c(-c2ccc3ncc(-c4cc(F)cc(F)c4)c(N4CCC(N)CC4)c3c2)c1 [2-75, 5-[4-(4-aminopiperidin-1-yl)-3-(3,5-difluorophenyl)quinolin-6-yl]-6-(azetidin-1-yl)pyridine-3-carbonitrile] |  | < 10 nM
NC(=O)c1cnc(N2CCC2)c(-c2ccc3ncc(-c4cc(F)cc(F)c4)c(N4CCC(N)CC4)c3c2)c1 [2-76, 5-[4-(4-aminopiperidin-1-yl)-3-(3,5-difluorophenyl)quinolin-6-yl]-6-(azetidin-1-yl)pyridine-3-carboxamide] | 100 to 1000 nM | 
N#Cc1cccc(-c2ccc3ncc(-c4cc(F)cc(F)c4)c(N4CCC(N)CC4)c3c2)c1N [2-77, 2-amino-3-[4-(4-aminopiperidin-1-yl)-3-(3,5-difluorophenyl)quinolin-6-yl]benzonitrile] |  | < 10 nM
COCOc1c(C#N)cccc1-c1ccc2ncc(-c3cc(F)cc(F)c3)c(N3CCC(N)CC3)c2c1 [2-78, 3-[4-(4-aminopiperidin-1-yl)-3-(3,5-difluorophenyl)quinolin-6-yl]-2-(methoxymethoxy)benzonitrile] |  | < 10 nM
CCON=Cc1cc(F)cc(-c2cnc3ccc(-c4cccc(C#N)c4O)cc3c2N2CCC(N)CC2)c1 [2-79, 3-[4-(4-aminopiperidin-1-yl)-3-{3-[(ethoxyimino)methyl]-5-fluorophenyl}quinolin-6-yl]-2-hydroxybenzonitrile] | 100 to 1000 nM | 
O=c1[nH]c2cc(-c3ccc4ncc(-c5cc(F)cc(F)c5)c(N5CC[C@H]6NCCO[C@@H]6C5)c4c3)cc(F)c2[nH]1 [2-80, trans-6-[3-(3,5-difluorophenyl)-4-{octahydro-1H-pyrido[3,4-b]morpholin-6-yl}quinolin-6-yl]-4-fluoro-2,3-dihydro-1H-1,3-benzodiazol-2-one] |  | < 10 nM
CO/N=C/c1cccc(-c2ccc3ncc(-c4cc(F)cc(F)c4)c(N4CCC(N)CC4)c3c2)c1O [2-81, 2-[4-(4-aminopiperidin-1-yl)-3-(3,5-difluorophenyl)quinolin-6-yl]-6-methoxyiminomethyl-phenol] | < 10 nM | 
CC[C@H](N)C1CN(c2c(-c3cc(C)cc(F)c3)cnc3ccc(-c4cc(F)cc(C#N)c4O)cc23)C1 [2-82, 3-(4-{3-[(1S)-1-aminopropyl]azetidin-1-yl}-3-(3-fluoro-5-methylphenyl)quinolin-6-yl)-5-fluoro-2-hydroxybenzonitrile] | 10 to 100 nM | 
COC(=O)Nc1c(F)cc(F)cc1-c1ccc2ncc(-c3cc(F)cc(F)c3)c(N3CCC(N)CC3)c2c1 [2-83, methyl N-{2-[4-(4-aminopiperidin-1-yl)-3-(3,5-difluorophenyl)quinolin-6-yl]-4,6-difluorophenyl}carbamate] |  | < 10 nM
COCOc1c(C#N)cccc1-c1ccc2ncc(-c3cc(F)cc(F)c3)c(N3CC[C@@H](N)[C@H](OC)C3)c2c1 [2-84] |  | < 10 nM
NC(=O)c1cccc(-c2ccc3ncc(-c4cc(F)cc(F)c4)c(N4CC[C@H]5NCCO[C@@H]5C4)c3c2)n1 [2-85, trans-6-[3-(3,5-difluorophenyl)-4-{octahydro-1H-pyrido[3,4-b]morpholin-6-yl}quinolin-6-yl]pyridine-2-carboxamide] |  | < 10 nM
CS(=O)(=O)Nc1c(F)cc(F)cc1-c1ccc2ncc(-c3cc(F)cc(F)c3)c(N3CCC(N)CC3)c2c1 [2-86, N-{2-[4-(4-aminopiperidin-1-yl)-3-(3,5-difluorophenyl)quinolin-6-yl]-4,6-difluorophenyl}methanesulfonamide] | 100 to 1000 nM | 
COCCOCOc1c(C#N)cccc1-c1ccc2ncc(-c3cc(F)cc(F)c3)c(N3CCC(N)CC3)c2c1 [2-87, 3-[4-(4-aminopiperidin-1-yl)-3-(3,5-difluorophenyl)quinolin-6-yl]-2-[(2-methoxyethoxy)methoxy]benzonitrile] | 10 to 100 nM | 
Cc1cc(F)cc(-c2cnc3ccc(-c4cccc(C(=O)N5CCC5)c4O)cc3c2N2CCC(N)CC2)c1 [2-88, 2-[4-(4-aminopiperidin-1-yl)-3-(3-fluoro-5-methylphenyl)quinolin-6-yl] 6-(azetidine-1-carbonyl)phenol] | 10 to 100 nM | 
N#Cc1cc(F)c(F)c(-c2ccc3ncc(-c4cc(F)cc(F)c4)c(N4CCC(N)CC4)c3c2)c1O [2-99, 3-[4-(4-aminopiperidin-1-yl)-3-(3,5-difluorophenyl)quinolin-6-yl]-4,5-difluoro-2-hydroxybenzonitrile] |  | < 10 nM
CON=Cc1cccc(-c2ccc3ncc(-c4cc(C)cc(F)c4)c(N4CCC(N)CC4)c3c2)c1O [2-115, 2-[4-(4-aminopiperidin-1-yl)-3-(3-fluoro-5-methylphenyl)quinolin-6-yl]-6-[(methoxyimino)methyl]phenol] |  | < 10 nM
CON=Cc1cc(F)cc(-c2ccc3ncc(-c4cc(C)cc(F)c4)c(N4CCC(N)CC4)c3c2)c1O [2-116, 2-[4-(4-aminopiperidin-1-yl)-3-(3-fluoro-5-methylphenyl)quinolin-6-yl]-4-fluoro-6-[(methoxyimino)methyl]phenol] |  | < 10 nM

Structure (SMILES) | EC50 | EC50 [1]
COC(=O)Nc1c(F)cc(F)c(F)c1-c1ccc2ncc(-c3cc(F)cc(F)c3)c(N3CCC(N)CC3)c2c1 [2-123, methyl N-{2-[4-(4-aminopiperidin-1-yl)-3-(3,5-difluorophenyl)quinolin-6-yl]-3,4,6-trifluorophenyl}carbamate] |  | < 10 nM
COC(=O)Nc1c(C#N)cncc1-c1ccc2ncc(-c3cc(F)cc(F)c3)c(N3CCC(N)CC3)c2c1 [2-125, methyl N-{3-[4-(4-aminopiperidin-1-yl)-3-(3,5-difluorophenyl)quinolin-6-yl]-5-cyanopyridin-4-yl}carbamate] |  | < 10 nM
NC1CCN(c2c(-c3cc(F)cc(F)c3)cnc3ccc(-c4cccc(F)c4C=NO)cc23)CC1 [2-126, 1-[3-(3,5-difluorophenyl)-6-{3-fluoro-2-[(hydroxyimino)methyl]phenyl}quinolin-4-yl]piperidin-4-amine] |  | < 10 nM
CON=Cc1c(F)cccc1-c1ccc2ncc(-c3cc(F)cc(F)c3)c(N3CCC(N)CC3)c2c1 [2-129, 1-[3-(3,5-difluorophenyl)-6-{3-fluoro-2-[(methoxyimino)methyl]phenyl}quinolin-4-yl]piperidin-4-amine] | 10 to 100 nM | 
NC1CCN(c2c(-c3cc(F)cc(F)c3)cnc3ccc(-c4cccc(C(N)C(F)(F)F)c4)cc23)CC1 (centres unmarked) [2-132, 1-{6-[3-(1-amino-2,2,2-trifluoroethyl)phenyl]-3-(3,5-difluorophenyl)quinolin-4-yl}piperidin-4-amine] | 10 to 100 nM | 
NC1CCN(c2c(-c3cc(F)cc(F)c3)cnc3ccc(-c4c(O)c(Cl)cc(F)c4F)cc23)CC1 [2-134, 2-[4-(4-aminopiperidin-1-yl)-3-(3,5-difluorophenyl)quinolin-6-yl]-6-chloro-3,4-difluorophenol] |  | < 10 nM
CONC(=O)Nc1c(F)cc(F)cc1-c1ccc2ncc(-c3cc(F)cc(F)c3)c(N3CCC(N)CC3)c2c1 [2-139, 1-{2-[4-(4-aminopiperidin-1-yl)-3-(3,5-difluorophenyl)quinolin-6-yl]-4,6-difluorophenyl}-3-methoxyurea] |  | < 10 nM
NC1CCN(c2c(-c3cc(F)cc(F)c3)cnc3ccc(-c4cc(Cl)c5[nH]c(=O)[nH]c5c4)cc23)CC1 [2-141, 6-[4-(4-aminopiperidin-1-yl)-3-(3,5-difluorophenyl)quinolin-6-yl]-4-chloro-2,3-dihydro-1H-1,3-benzodiazol-2-one] | 10 to 100 nM | 
NC1CCN(c2c(-c3cc(F)cc(F)c3)cnc3ccc(-c4ccc5oc(=O)[nH]c5c4)cc23)CC1 [2-142, 5-[4-(4-aminopiperidin-1-yl)-3-(3,5-difluorophenyl)quinolin-6-yl]-2,3-dihydro-1,3-benzoxazol-2-one] |  | < 10 nM
N#Cc1cccc(-c2ccc3ncc(-c4cc(F)cc(F)c4)c(N4CC[C@@H](N)[C@H](C(=O)O)C4)c3c2)c1O [2-145] |  | 100 to 1000 nM
N#Cc1cc(Cl)c(F)c(-c2ccc3ncc(-c4cc(F)cc(F)c4)c(N4CCC(N)CC4)c3c2)c1O [2-147, 3-[4-(4-aminopiperidin-1-yl)-3-(3,5-difluorophenyl)quinolin-6-yl]-5-chloro-4-fluoro-2-hydroxybenzonitrile] | 10 to 100 nM | 
COC(=O)Nc1c(C#N)cccc1-c1ccc2ncc(-c3cc(F)cc(F)c3)c(N3CCC(N)CC3)c2c1 [2-148, methyl N-{2-[4-(4-aminopiperidin-1-yl)-3-(3,5-difluorophenyl)quinolin-6-yl]-6-cyanophenyl}carbamate] |  | < 10 nM
NC1CCN(c2c(-c3cc(F)cc(F)c3)cnc3ccc(-c4c(O)c(F)cc(F)c4F)cc23)CC1 [2-150, 2-[4-(4-aminopiperidin-1-yl)-3-(3,5-difluorophenyl)quinolin-6-yl]-3,4,6-trifluorophenol] |  | < 10 nM
NC1CCN(c2c(-c3cc(F)cc(F)c3)cnc3ccc(-c4cncc(F)c4C=NO)cc23)CC1 [2-152, 1-[3-(3,5-difluorophenyl)-6-{5-fluoro-4-[(hydroxyimino)methyl]pyridin-3-yl}quinolin-4-yl]piperidin-4-amine] |  | < 10 nM
CONC(=O)Nc1c(F)cc(F)cc1-c1ccc2ncc(-c3cc(F)cc(OC)c3)c(N3CCC(N)CC3)c2c1 [2-164, 1-{2-[4-(4-aminopiperidin-1-yl)-3-(3-fluoro-5-methoxyphenyl)quinolin-6-yl]-4,6-difluorophenyl}-3-methoxyurea] |  | < 10 nM
COC(=O)Nc1c(F)cc(F)cc1-c1ccc2ncc(-c3cc(F)cc(OC)c3)c(N3CCC(N)CC3)c2c1 [2-165, methyl N-{2-[4-(4-aminopiperidin-1-yl)-3-(3-fluoro-5-methoxyphenyl)quinolin-6-yl]-4,6-difluorophenyl}carbamate] |  | < 10 nM
COc1cc(F)cc(-c2cnc3ccc(-c4cccc(F)c4C=NO)cc3c2N2CCC(N)CC2)c1 [2-166, 1-(6-{3-fluoro-2-[(hydroxyimino)methyl]phenyl}-3-(3-fluoro-5-methoxyphenyl)quinolin-4-yl)piperidin-4-amine] |  | < 10 nM
